Laboratory results from ChEMBL document CHEMBL3822446, “Synthesis of 1H-pyrrolo[3,2-h]quinoline-8-amine derivatives that target CTG trinucleotide repeats” (Bioorg Med Chem Lett, 2016).
Calls of active or inactive are those of the source. The calls are words filed in the database; no cut-off is given here.

Legend:
[1] = Binding affinity to duplex DNA dT bulge (unknown origin) assessed as change in melting point at 50 uM by UV-Vis spectrophotometric analysis
[2] = Binding affinity to 5'-Biotinylated DNA d(CTG)9-3' (unknown origin) by isothermal titration calorimetry
[3] = Binding affinity to 5'-Biotinylated DNA d(CCG)9-3' (unknown origin) after 120 sec by SPR assay; details: read-out: Kd(app)
[4] = Binding affinity to 5'-Biotinylated DNA d(CTG)9-3' (unknown origin) assessed as red shifting of abosrption band at 349 nm at 10 uM by UV-spectrophotometric analysis
[5] = Binding affinity to 5'-Biotinylated DNA d(CGG)9-3' (unknown origin) at 0.63 to 10 uM after 120 sec by SPR assay
[6] = Binding affinity to full match duplex DNA (unknown origin) assessed as change in melting point at 50 uM by UV-Vis spectrophotometric analysis
[7] = Binding affinity to duplex DNA dG bulge (unknown origin) assessed as change in melting point at 50 uM by UV-Vis spectrophotometric analysis
[8] = Binding affinity to duplex DNA dC bulge (unknown origin) assessed as change in melting point at 50 uM by UV-Vis spectrophotometric analysis
[9] = Binding affinity to duplex DNA dA bulge (unknown origin) assessed as change in melting point at 50 uM by UV-Vis spectrophotometric analysis
[10] = Binding affinity to 5'-biotinylated DNA d(CTG)9-3' (unknown origin) after 120 sec by SPR assay; details: read-out: Kd(app)
[11] = Binding affinity to 5'-Biotinylated DNA d(CAG)9-3' (unknown origin) at 0.63 to 10 uM after 120 sec by SPR assay

Work on NCCCCC(=O)Nc1ccc2ccc3cc[nH]c3c2n1 yielded a ΔTm [1] of 2.6 °C.
Work on NCCCNC(=O)Nc1ccc2ccccc2n1 yielded a ΔTm [1] of 1.3 °C.
Work on NCCCNC(=O)Nc1ccc2ccc3cc[nH]c3c2n1 yielded a Kd [2] of 17 µM, a Kd [3] of 33 µM and an Activity [4] of 8 nm. The Activity [5] was “inactive”, the ΔTm [6] was 0.8 °C and the ΔTm [7] was 1 °C. The ΔTm [8] was 5.8 °C, the ΔTm [9] was 1.4 °C and the ΔTm [1] was 5.2 °C. The Kd [10] was 20 µM and the Activity [11] was “inactive”.
NCC(=O)Nc1ccc2ccc3cc[nH]c3c2n1 gave a ΔTm [1] of 2.9 °C.
Compound NCCC(=O)Nc1ccc2ccc3cc[nH]c3c2n1 has a ΔTm [6] of 0.9 °C, a ΔTm [7] of 1.7 °C and a ΔTm [8] of 3.5 °C. The ΔTm [9] was 1.7 °C and the ΔTm [1] was 4.7 °C.
For Nc1cccc(N)n1, the Activity [4] was “inactive”.
Compound NCCCC(=O)Nc1ccc2ccc3cc[nH]c3c2n1 has a ΔTm [1] of 3.6 °C.
With NCCC(=O)Nc1ccc2ccccc2n1 the ΔTm [1] was 0.3 °C.
